From US9656984B2, “PI3K/AKT/mTOR inhibitors and pharmaceutical uses thereof” (UNIVERSITE DE RENNES 1, priority 2013, dated 2017) come the findings set out here.

Data set [1] concerns MCF-7 (ER-positive) breast tumor cell line. Kind of data set: Cell death by MTT assay, MCF-7. It is filed as cell-based, human. To be noted: 24 hours, mean of four experiments. The protocol:
(§1) The ER-positive breast tumor cell lines MCF-7 and T47-D and the HER2 positive breast tumor cell lines MDA-MB-453 and BT474 (also ER-positive) were incubated with the indicated concentration of each mentioned compound of formula (I) for 24 hours and then cell death was assessed using MTT assay.
(§2) For each cell line, the percentage of cell death (mean of four experiments for cell lines MCF-7 and T47-D, and two experiments for cell lines MDA-MB-453 and BT474) is given in view of the increasing concentration of each tested compound of the invention.
(§3) Cell viability was assessed using the 3-[4,5-dimethylthiazol-2-yl]-2,5-diphenyltetrazolium bromide (MTT) viability assay (1). In brief, cells (4×10^4 per well) were cultured for 20 h in flat-bottomed 96 well plates with various concentrations of the apoptosis inducer. Then 0.015 ml of MTT (5 mg/ml in PBS) was added to each well and incubated for 4 h at 37° C. Formazan salt precipitats were dissolved by adding 0.115 ml of isopropyl alcohol containing 1% formic acid (v/v), and the absorbance was measured at 570 nm.

Data set [2] deals with TSC2^−/− AML (AngioMyoLipoma) cells. Kind of data set: Cell viability by MTT assay on TSC2^−/− and TSC2^+/+ AML cells. To be noted: 16 hours, 1% fetal calf serum. It counts as cell-based, human. The protocol:
AML (AngioMyoLipoma) cells from a patient (generous gift from Dr M. Pende, Paris) were enriched for TSC2^−/− cells, as a model of tuberous sclerosis. These cells have been reconstituted with wild type TSC2 (TSC2^+/+). Cell proliferation was assessed in cells from angiomyolipomas and their counterparts reconstituted with wild type TSC2.
Cell viability was assessed by MTT assay. Cells were incubated for 16 hours in a 1% fetal calf serum-containing medium supplemented with the indicated concentrations of the two mTOR inhibitors, compound 25 or rapamycin (see FIGS. 14B and 14C). Data represent mean and standard deviation of three independent experiments.
as §3
A general note: Tetrazolium assays rely on reduction of a dye to a coloured formazan, in cell work by metabolically active cells.

Data set [3] addresses T1, mTOR protein regarding 243 human kinases (Homo sapiens, UniProt P42345).
T1 construct: purchased
The data set is described as follows: Kinome by KinaseProfiler. It counts as biochemical. The following applies: 1 μM, FIG. 11.

Data set [4] can be described thus: In vivo toxicity, repeated intravenous injections in mice. To be noted: 10 mg/kg. How it is done: Mice received repeated intravenous injections of compound 25 (10 mg/kg) or vehicle.
A further data set has as its system AKT phosphorylation. The data set is described as follows: In cellulo IC50 of AKT phosphorylation in CEM cells (Western blot densitometry). The following applies: Homo sapiens, CCRF-CEM, 2 hours incubation, AKT phosphorylation vs whole AKT, read-out: In vivo IC50. It counts as cell-based. How it is done: CEM cells were incubated for 2 hours with the indicated concentrations of each mentioned compound of formula (I). Cells were then lysed and 100 μg of protein was loaded per line in an SDS-PAGE. Bands from AKT phosphorylation and whole AKT observed by Western blot were scanned and quantified by densitometric analysis. Based on these values, an in cellulo IC50 (half maximal inhibitory concentration) was measured for each compound of formula (I).
(§4) Immunoblots Excepted for immunoprecipitation experiments in which cells were lyzed with RIPA buffer, cells were lyzed for 30 min at 4° C. in Lysis buffer (25 mM HEPES pH 7.4, 1% v/v Triton X-100, 150 mM NaCl, 2 mM EGTA supplemented with a mix of protease inhibitors). Protein concentration was determined by the bicinchoninic acid method (Pierce, Rockford, Ill., USA) according to the manufacturer's protocol. Proteins were resolved by 8, 10 or 12% SDS-PAGE and transferred to a nitrocellulose membrane (GE Healthcare, Buckinghamshire, UK). The membrane was blocked 15 min with TBST (50 mM Tris, 160 mM NaCl, 0.05% v/v Tween 20, pH 7.4) containing 5% w/v dried skimmed milk (TBS™). Primary antibody was incubated overnight at 4° C. in TBS™. The membrane was intensively washed (TBST) and then the peroxydase-labeled anti-mouse IgG1 or IgG2a (CliniSciences, Nanterre, France) was added for 45 min. Proteins were visualized with the enhanced chemiluminescence substrate kit (ECL RevelBIOt®, Ozyme, Saint Quentin en Yvelines, France).

For the next data set, the system named is BT549 cells. Kind of data set: Boyden chamber cell migration, BT549 stimulated with CD95L. It is filed as cell-based, human. The following applies: BT549, 1 μM, CD95L 100 ng/ml, 24 hours, FIG. 17A. The protocol:
TNBC (MDA-MB-231 and BT549) cell lines were pre-incubated for 1 hour in presence or absence of non-cytotoxic amount of compound 25 (1 μM) and then treated or untreated with CD95L (100 ng/ml) for 24 hours. Cell migration was analyzed using Boyden chamber assay. Migrating Giemsa-stained cells were lysed and absorbance was measured at a wavelength of 560 nm. Values represent the means±SEM of three independently performed experiments. *p<0.05 as calculated using two-tailed Mann-Whitney test.
After membrane hydration of Boyden chambers (Millipore, Molsheim, France) containing 8 μm pore membranes, 10^5 cells were added to the top chamber. The bottom chamber was filled with low serum (1%)-containing medium in the presence or absence of cl-CD95L (100 ng/ml). Breast cancer cells were incubated for 24 h. To quantify invasion, cells were fixed with methanol and stained with Giemsa. Stained cells were then removed from the top-side of the membrane using a cotton-tipped swab and five representative pictures for each insert were taken of the invading cells from the reverse side. For each experiment, invading cells were lysed and absorbance at 560 nm was measured.

Another data set addresses mTORC1 (Homo sapiens, UniProt P42345). Kind of data set: Immunoblot of mTORC1 substrates p70S6K-Thr389 and 4EBP1-Thr37 and 46 in CEM cells. It counts as cell-based. On the set-up: AML cells (1.10^6 cells) deficient for TSC2 (TS2^−/−) or reconstituted with wild type TSC2; endogenous in cells. The following applies: 2 hours, FIG. 16. The protocol:
CEM cells (1·10^6 cells) were incubated with indicated concentrations of compound 25 for 2 hours and lysates of the cells were subjected to Western blot analysis. Inhibitory activity of compound 25 on mTORC1 substrates p70S6K-Thr389 and 4EBP1-Thr37 and 46 and on mTORC2 substrate Akt-Ser473 and on PDK1 substrate Akt-Thr308 was evaluated by immunoblotting. Total 4EBP1, p70S6K, Akt and […] serve as loading controls. The compounds of the invention and more particularly compound 25 may be competitive inhibitors of mTOR because they inhibit mTORC1 (4EBP1 and p70S6K) and mTORC2 substrates (AKT at S473) as shown in FIG. 16.
as §4, with “The membrane was intensively washed (TBST) and then the peroxydase-labeled anti-mouse IgG1 or IgG2a (CliniSciences, Nanterre, France) was added for 45 min. Proteins were visualized with the enhanced chemiluminescence substrate kit (ECL RevelBIOt®, Ozyme, Saint Quentin en Yvelines, France).” left out
(In general: In western blotting, separated proteins are transferred to a membrane and probed.)

For data set [5], the system named is BT474 (ER-positive/HER2-positive) breast tumor cell line. Kind of data set: Cell death by MTT assay, BT474. It is filed as cell-based, human. To be noted: 24 hours, mean of two experiments. The protocol:
as §1, §2, §3

With `O=[N+]([O-])C1=Cc2cc(Br)cc(Br)c2OC1c1ccc(Br)cc1` (centres unmarked) [Compound 25, 6,8-dibromo-2-(4-bromo-phenyl)-3-nitro-2H-chromene], the “percentage of cell death” value in data set [1] (MCF-7, 6.25 μM) is 47.86%; in data set [1] (MCF-7, 12.5 μM), 63.54%; in data set [1] (MCF-7, 25 μM), 76.72%; in data set [1] (MCF-7, 50 μM) it was 94.09%; in data set [5] (BT474, 6.25 μM), 75.54%; in data set [5] (BT474, 12.5 μM) it was 95.61%. Besides, the “percentage of cell death” value is on record as 90.49% in data set [5] (BT474, 25 μM) and 96.81% in data set [5] (BT474, 50 μM). Also, the “sensitivity of TSC2^−/− cells versus wild type TSC2^+/+ cells (cell death, MTT)” value in data set [2] (FIG. 14B) is “more sensitive”. In addition, in data set [2] (FIGS. 14B and 14C), the “efficiency to kill TSC2^−/− cells compared with rapamycin” value is given as “more efficient”. Besides, the selectivity in kinome result in data set [3] was “selectivity of compound 25 for the mTOR protein”. In addition, the toxicity in mice result in data set [4] was “did not exhibit toxicity”. Moreover, the “body weight of the tested mice” value in data set [4] (FIG. 13A) is recorded as “maintained”. In addition, the “survival of the tested mice” value in data set [4] (at 7 days, FIG. 13B) was “all mice survived”. Further, the IC50 with AKT phosphorylation is 3000 nM. Also, in the data set with BT549 cells, the “migration of tumor cells stimulated with CD95L” value is “abrogate”. Moreover, the “inhibitory activity on mTORC1 substrates (4EBP1 and p70S6K)” value on mTORC1 is reported as “inhibit”.

As a reminder, the IC50 is the point on the concentration scale where inhibition reaches its midpoint.
